Experimental data taken from the NIST ThermoML archive (doi:10.1021/acs.jced.9b00844).
± gives the expanded uncertainty stated by the source.

Experiments:
[1] = Crystal; DSC
[2] = Molar enthalpy of transition or fusion; conditions: Crystal; DSC

Triple point temperature [1]: 446.85 ± 1.2 K | Molar enthalpy of transition or fusion [2]: 2.78 ± 0.179 kcal/mol
Compound: N=C(N)NC(=N)NCCc1ccccc1 [N-(2-phenylethyl)imidodicarbonimidic diamide]
